Experimental data as given in patent US20220228164A1, “ENGINEERED ANTIGEN PRESENTING CELLS” (Neogene Therapeutics B.V., priority 2021, published 2022).

Columns and labels:
Type in all cases: cell-based, human
[1] = test system: TCR-KO Jurkat T cells expressing the GCN1L1 TCR; experiment: Peptide electroporation of BCL-6/BCL-xL-CD40L immortalized B cells, co-culture with TCR Jurkat T cells, CD69 (Examples 11, 12); conditions: for presentation of the GCN1L1 antigen after peptide electroporation (CD69+ of live cells): electroporated into BCL-6/BCL-xL-CD40L immortalized B cells
From the text: Immortalized primary human B cells that are electroporated with a polypeptide of a uniform length (25mer) will be efficiently processed and present T cell epitopes encoded within the polypeptide via the MHC class I pathway and activate T cells expressing an MHC class I restricted TCR specific for the T cell epitope encoded within the polypeptide. BCL-6/BCL-xL-CD40L immortalized B cells from a healthy donor were electroporated with short (10mer) (ALLETPSLLL, SEQ ID NO: 5) or long (25mer) ([…], SEQ ID NO: 6) peptides encoding the GCN1L1 mutated peptide or CMV mutated long peptide ([…], SEQ ID NO: 7), using a method known to the skilled artisan. Briefly, for each sample, 0.2e6 B cells were harvested and washed with PBS. After removal of all PBS, the dry pellet was resuspended in electroporation buffer (SF-buffer, Lonza) at a concentration of 25e6 cells per mL. Of this mixture, 20 μL per sample was added to a 96 well tissue-culture-plate that contains the appropriate amount of peptide resulting in the indicated peptide concentration. Cells were transferred to a 16-well electroporation strip (Lonza) and subsequently electroporated using the DN100 program (Lonza Amaxa). Post-electroporation, cells were rested for 10 minutes at 37° C. and transferred to a 96 well round bottom tissue-culture plate in a final volume of 200 μL of Complete B cell Medium (RPMI1640 medium supplemented with 10% (v/v) Fetal Calf Serum (FCS), 1% (v/v) Penicillin/Streptomycin (P/S), 1% (v/v) Sodium Pyruvate, 1% (v/v) Non-essential amino acids, 1% (v/v) Glutamax, 50 nM 2-Mercaptoethanol) and incubated for 0, 2, 4, 5, 6, 10 or 24 hrs at 37° C. The resting period post peptide electroporation allows for exogenous loading of the peptide onto the target cells in a parallel experimental condition. […] After 20 hours, cells were stained with antibodies directed against CD8 and CD69 and specific recognition by TCR td T cells was measured by CD69 upregulation on a flow cytometer. […]

[2] = test system: Jurkat T cells expressing the class II restricted MAGE-A3 TCR; experiment: Peptide electroporation of BCL-6/BCL-xL-CD40L immortalized B cells, co-culture with TCR Jurkat T cells, CD69 (Example 12); conditions: 25mer electroporated; MHC class II restricted TCR
[3] = test system: TCR-KO Jurkat T cells expressing the CMV1 TCR; experiment: Peptide electroporation of BCL-6/BCL-xL-CD40L immortalized B cells, co-culture with TCR Jurkat T cells, CD69 (Examples 11, 12); conditions: 25mer electroporated; MHC class I restricted TCR
From the text: Immortalized primary human B cells that are electroporated with a polypeptide of a uniform length (25mer) will be efficiently processed and present T cell epitopes encoded within the polypeptide via the MHC class I pathway and activate T cells expressing an MHC class I restricted TCR specific for the T cell epitope encoded within the polypeptide. BCL-6/BCL-xL-CD40L immortalized B cells from a healthy donor were electroporated with short (10mer) (ALLETPSLLL, SEQ ID NO: 5) or long (25mer) ([…], SEQ ID NO: 6) peptides encoding the GCN1L1 mutated peptide or CMV mutated long peptide ([…], SEQ ID NO: 7), using a method known to the skilled artisan. Briefly, for each sample, 0.2e6 B cells were harvested and washed with PBS. After removal of all PBS, the dry pellet was resuspended in electroporation buffer (SF-buffer, Lonza) at a concentration of 25e6 cells per mL. […] After 20 hours, cells were stained with antibodies directed against CD8 and CD69 and specific recognition by TCR td T cells was measured by CD69 upregulation on a flow cytometer.
A CMV epitope was electroporated or loaded onto BCL-6/BCL-xL/CD40L immortalized B cells. T cell activation was measured for various concentrations of peptide after 6, 10 or 24 hours of post-electroporation resting (FIG. 17A) or were loaded with peptide (FIG. 17B) for similar time-points. […]

For “ALLETPSLLL [short GCN1L1 peptide, short (10mer) peptide encoding the GCN1L1 mutated peptide]”, the “presentation of the GCN1L1 antigen after peptide electroporation (CD69+ of live cells)” value [1] was “efficient presentation”.
“FSWNVKAALLETPSLLLAKVGIALK [long GCN1L1 peptide, long (25mer) peptide encoding the GCN1L1 mutated peptide]” was tested, and the “post-electroporation rest with which the peptide elicits a response (% CD69)” value (“post-electroporation rest … (% CD69)” for short) ([1]; 25mer electroporated, MHC class I restricted TCR) was no less than 2 h and the “presentation of the GCN1L1 antigen after peptide electroporation (CD69+ of live cells)” value [1] was “efficient presentation”.
ILGDPKKLLTQHFVQENYLEYRQVP [MAGEA3] was tested, and the “post-electroporation rest … (% CD69)” value [2] was no less than 2 h.
In the case of “WQAGILARNLVPMVATVQGQNLKYQ [long CMV1 peptide, CMV long (25mer) peptide]”, the “post-electroporation rest … (% CD69)” value [3] is reported as no less than 2 h.
